Measured values: patent US12677825B2, “Composition for protecting islet transplantation” (LG CHEM, LTD., priority 2020, dated 2026)

How the values were obtained:
[1] = tested on: islets from hIAPP+/− FVB/N mice; assay: Alamar blue viability of islets isolated with or without Compound 1; format: cell-based, mouse; settings: 20 μM Compound 1 during islet isolation, vs non-treated group; FIG. 1A
Protocol: (§1) Mouse islets were isolated from 10- to 12-week-old hIAPP^+/− and C57BL/6 mice as described previously. Briefly, 0.8 mg/mL of collagenase P (Roche, Indianapolis, IN, USA) in Hank's buffered saline solution (HBSS, Sigma-Aldrich, St. Louis, MO, USA) with or without 20 μM Compound 1 were infused into the common bile duct for mouse pancreas digestion. Islets were purified from the digested pancreas using a Ficoll (Biochrom, Berlin, Germany) gradient and washed several times with 1 xHBSS. Isolated islets were cultured while free-floating in 10 mL of RPMI 1640 (Gibco, Grand Island, NY, USA). The medium was supplemented with 10% heat-inactivated FBS (fetal bovine serum) at 37° C. and 5% CO2 incubation prior to the ex vivo and in vivo studies.
The viability of islets was evaluated using Alamar blue staining according to the manufacturer's protocol (Invitrogen, Grand Island, NY, USA). Briefly, islets isolated from hIAPP^+/− mice were cultured at a density of 100 islet equivalents (IE) per well in 24-well plates with RPMI 1640 containing 10% FBS and 0.625% BSA with or without Compound 1. […] The fluorescence intensity of each well was measured at 570/585 nm (excitation/emission) using a GloMax-Multi Plus Detection System (Promega, Fitchburg, WI, USA), and the values were normalized to a blank.

[2] = tested on: islets from hIAPP+/− FVB/N mice; assay: Glucose-stimulated insulin secretion (GSIS) assay after islet isolation; format: cell-based, mouse; settings: 20 μM Compound 1 during islet isolation, vs non-treated group; FIG. 1E
Protocol: as §1
After hand-picking and washing with PBS, islets were seeded on 12-mm diameter insert wells (Merck Millipore, Billerica, MA, USA) with 10 islets per well, and preincubated with 60 mg/dL glucose in Kreb's-Ringer buffer (KRB: 129 mM NaCl, 4.8 mM KCl, 2.5 mM CaCl2, 1.2 mM KH2PO4, 5 mM NaHCO3, 10 mM HEPES, and 0.2% BSA) for […] at 37° C. After washing, islets were incubated with 300 mg/dL glucose-KRB for 1 hour, followed by additional incubation with 60 mg/dL glucose-KRB for 1 hour. Insulin release into the supernatant by the mouse islets was measured by ELISA (ALPCO, Salem, NH, USA) and a multiplex kit (Merck Millipore), respectively.

RINm5F cells [3] = assay: tert-butyl hydroperoxide (tBHP) exposure of RINm5F cells; format: cell-based, rat; settings: Compound 1 supplementation
Protocol: (§2) Islets were isolated from heterozygous human islet amyloid polypeptide transgenic (hIAPP^+/−)FVB/N mice (Jackson Laboratory, Bar Harbor, ME, USA), […] mice (Orientbio, Sungnam, Korea), and cynomolgus monkeys (Macaca fascicularis; Orientbio, Sungnam, Korea). For additional in vitro studies, rat insulinoma cells (RINm5F cells) were treated with or without Compound 1 during culture under tert-butyl hydroperoxide (tBHP) exposure or serum deprivation condition. RINm5F cells were suspended in DMEM medium (Gibco, Grand Island, NY, USA) containing 100 IU/mL penicillin and 100 μg/mL streptomycin, and cultured at 37° C. in a fully humidified 5% CO2 atmosphere. All experimental protocols in this study were approved by the Institutional Animal Care and Use Committee (IACUC) of Samsung Biomedical Research Institute.

RINm5F cells [4] = assay: Serum-deprived culture of RINm5F cells (viability, ROS); format: cell-based, rat; settings: dose-dependent 0.1 μM to 20 μM
Protocol: as §2

[5] = tested on: islets from hIAPP+/− FVB/N mice; assay: Serum-deprived culture of mouse islets (viability, ROS); format: cell-based; settings: dose-dependent 0.1 μM to 20 μM
Protocol: (§3) Purified hIAPP^+/− FVB/N and C57BL/6J mouse were suspended in RPMI 1640 (Gibco, Grand Island, NY, USA) containing 100 IU/mL penicillin and 100 μg/mL streptomycin, and cultured at 37° C. in a fully humidified 5% CO2 atmosphere. Purified NHP islets were suspended in CMRL 1066 medium (Coming Life Sciences, Tewksbury, MA; catalog number 99-663-CV) containing 100 IU/mL penicillin and 100 μg/mL streptomycin, and cultured at 37° C. in a fully humidified 5% CO2 atmosphere. […]
The viability of islets was evaluated using Alamar blue staining according to the manufacturer's protocol (Invitrogen, Grand Island, NY, USA). […] The fluorescence intensity of each well was measured at 570/585 nm (excitation/emission) using a GloMax-Multi Plus Detection System (Promega, Fitchburg, WI, USA), and the values were normalized to a blank.
The oxidative stress levels in hIAPP^+/− mouse islets were determined right after islet isolation and after ex vivo culture of isolated islets. The oxidative stress of the islets was quantified using a fluorescence-based intracellular ROS detection method and by estimating the concentration of malondialdehyde (MDA), a by-product of lipid peroxidation. The formation of total ROS, superoxide ion and nitric oxide was determined using a reactive oxygen species detection kit (ENZ-51011, Enzo Life Sciences, Farmingdale, New York, USA). […]

[6] = tested on: hIAPP+/− FVB/N mice islets; assay: AO/PI staining viability during serum-deprived culture; format: cell-based, mouse; settings: BSA culture 72 hours, with Compound 1 vs BSA alone; FIGS. 6A, 6B
Protocol: as §3
Islet viability after isolation and culture was assessed using double fluorescence in acridine orange (0.67 […]) and propidium iodide (75 […]) (AO/PI) staining to visualize the living and dead islet cells simultaneously. Fluorescent imaging was performed with a fluorescence microscope (Nikon ECLIPSE 80i, Tokyo, Japan) and live and dead areas were quantified using NIS-Element AR 3.0 (Nikon). The islet viability (%) was calculated as living islet cells/total islet cells×100.

SMILES: O=S1(=O)CCN(Cc2cc(NC3CCOCC3)c3[nH]c(-c4ccccc4)cc3c2)CC1 [Compound 1]
- relative ex vivo cell viability assessed by Alamar blue assay [1]: significantly increased
- stimulation index in GSIS assay [2]: comparable values between two groups
- cellular toxicity (LDH release) (RINm5F cells [3]; FIG. 4A): markedly reduced
- ROS contents (RINm5F cells [3]; FIG. 4B): markedly reduced
- relative cell viability (RINm5F cells [4]; serum deprivation, FIG. 4C): significantly increased
- serum deprivation-induced ROS (RINm5F cells [4]; serum-deprived culture, FIG. 4E): decreased
- relative cell viability ([5]; FIG. 4D): significantly increased
- serum deprivation-induced ROS ([5]; FIG. 4F): decreased
- cell viability assessed by AO/PI staining [6]: significantly improved
